Assay results published in patent US20240343704A1, “HALO-SUBSTITUTED AMINO PYRIDINE COMPOUNDS AS INHIBITORS OF THE HAEMATOPOIETIC PROGENITOR KINASE 1 (HPK1)” (priority 2021, published 2024).

How the values were obtained:
[1] = target: T1, Recombinant (1-346) HPK1 (h) (Homo sapiens, UniProt Q92918); assay: HPK1 Human STE Kinase Enzymatic Radiometric Assay; assay type: biochemical; conditions: read-out: HPK1 IC50 nM Range*
T1 construct: Recombinant (1-346) HPK1 (h) is incubated with 8 mM MOPS pH 7.0
T1 sequence (Q92918 1-346): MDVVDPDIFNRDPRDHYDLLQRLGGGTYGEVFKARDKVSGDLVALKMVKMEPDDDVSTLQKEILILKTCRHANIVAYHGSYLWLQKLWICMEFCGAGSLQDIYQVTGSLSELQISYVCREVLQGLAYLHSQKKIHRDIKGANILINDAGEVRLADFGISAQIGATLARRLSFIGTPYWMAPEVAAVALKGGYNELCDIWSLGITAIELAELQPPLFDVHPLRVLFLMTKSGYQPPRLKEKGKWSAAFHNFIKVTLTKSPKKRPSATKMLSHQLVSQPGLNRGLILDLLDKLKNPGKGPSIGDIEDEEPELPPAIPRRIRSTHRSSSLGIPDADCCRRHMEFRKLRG
Description: A stock solution of 10 mM of test compound is prepared in DMSO. The compound plate was prepared by 3-fold and 9-point serial dilutions. […] The reaction is initiated by The addition of the Mg/ATP mix. After incubation for 40 minutes at RT, the reaction is stopped by the addition of phosphoric acid to a concentration of 0.5%.

Lck (h) = Lck (h) (Homo sapiens, UniProt P06239); assay: Lck Human  Kinase Enzymatic Radiometric Assay; assay type: biochemical; conditions: read-out: Lck IC50 nM Range*
Sequence of Lck (h) (P06239 whole entry): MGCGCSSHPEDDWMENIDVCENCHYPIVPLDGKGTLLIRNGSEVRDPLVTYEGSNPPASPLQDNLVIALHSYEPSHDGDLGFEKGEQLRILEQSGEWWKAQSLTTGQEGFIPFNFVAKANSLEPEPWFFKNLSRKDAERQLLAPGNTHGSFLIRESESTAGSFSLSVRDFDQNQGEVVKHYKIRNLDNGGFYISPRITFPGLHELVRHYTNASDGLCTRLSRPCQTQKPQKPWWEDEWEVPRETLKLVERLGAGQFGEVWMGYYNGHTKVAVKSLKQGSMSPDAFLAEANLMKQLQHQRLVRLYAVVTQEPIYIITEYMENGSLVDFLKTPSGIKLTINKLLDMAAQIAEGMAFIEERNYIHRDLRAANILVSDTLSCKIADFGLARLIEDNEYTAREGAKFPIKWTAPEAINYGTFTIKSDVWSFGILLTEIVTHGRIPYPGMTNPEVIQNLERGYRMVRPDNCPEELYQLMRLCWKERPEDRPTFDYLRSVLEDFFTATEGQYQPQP
Method in brief: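 Substrate 33P-incorporation measured by scintillation counting after spotting on P30 filtermat and phosphoric acid washes. Human Lck reacted 40 min at RT in 50 mM Tris pH 7.5 with 10 mM MgAcetate, [gamma-33P]-ATP, 250 uM Cdc2 peptide, 0.1 mM EGTA and 0.1 mM Na3VO4.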

Row | IC50 [1] [nM] | IC50 (Lck (h)) [nM] | Structure (SMILES)
1 | 11 to 100 | > 1000 | CC(C)N1CCc2cc(-c3cc(-c4ccc5c(c4)CCNC5=O)c(N)nc3F)ccc2C1 [I-328, 6-(2-amino-6-fluoro-5-(2-isopropyl-1,2,3,4-tetrahydroisoquinolin-6-yl)pyridin-3-yl)-3,4-dihydroisoquinolin-1(2H)-one]
2 | 101 to 1000 | > 1000 | COCCN1CCN(Cc2cccc(-c3cc(-c4ccc5c(c4)CCNC5=O)c(N)nc3F)c2)CC1 [I-329, 6-(2-amino-6-fluoro-5-(3-((4-(2-methoxyethyl)piperazin-1-yl)methyl)phenyl)pyridin-3-yl)-3,4-dihydroisoquinolin-1(2H)-one]
3 | 11 to 100 | > 1000 | CC(C)N1CCN(Cc2cccc(-c3cc(-c4ccc5c(c4)CCNC5=O)c(N)nc3F)c2)CC1 [I-330, 6-(2-amino-6-fluoro-5-(3-((4-isopropylpiperazin-1-yl)methyl)phenyl)pyridin-3-yl)-3,4-dihydroisoquinolin-1(2H)-one]
4 | 101 to 1000 | > 1000 | CN1CCN(C(=O)c2cccc(-c3cc(-c4ccc5c(c4)CCNC5=O)c(N)nc3F)c2)CC1 [I-331, 6-(2-amino-6-fluoro-5-(3-(4-methylpiperazine-1-carbonyl)phenyl)pyridin-3-yl)-3,4-dihydroisoquinolin-1(2H)-one]
5 | 0.1 to 10 | > 1000 | CN1CCN(c2ccc(-c3cc(-c4ccc5c(c4)CCNC5=O)c(N)nc3F)cc2N)CC1 [I-332, 6-(2-amino-5-(3-amino-4-(4-methylpiperazin-1-yl)phenyl)-6-fluoropyridin-3-yl)-3,4-dihydroisoquinolin-1(2H)-one]
6 | 0.1 to 10 | > 1000 | Nc1nc(F)c(-c2ccc3c(c2)CCNC3=O)cc1-c1ccc2c(c1)CCNC2=O [I-333, 6,6′-(2-amino-6-fluoropyridine-3,5-diyl)bis(3,4-dihydroisoquinolin-1(2H)-one)]
7 | 11 to 100 | > 1000 | Nc1nc(F)c(-c2ccc3c(c2)CNCC3)cc1-c1ccc2c(c1)CCNC2=O [I-334, 6-(2-amino-6-fluoro-5-(1,2,3,4-tetrahydroisoquinolin-7-yl)pyridin-3-yl)-3,4-dihydroisoquinolin-1(2H)-one 2,2,2-trifluoroacetate]
8 | 11 to 100 | > 1000 | CC(C)N1CCc2ccc(-c3cc(-c4ccc5c(c4)CCNC5=O)c(N)nc3F)cc2C1 [I-335, 6-(2-amino-6-fluoro-5-(2-isopropyl-1,2,3,4-tetrahydroisoquinolin-7-yl)pyridin-3-yl)-3,4-dihydroisoquinolin-1(2H)-one]
9 | 0.1 to 10 | 101 to 1000 | CC(C)N1CCN(c2ccc(-c3cc(-c4cc(F)c5c(c4)CCNC5=O)c(N)nc3F)cc2)CC1 [I-336, 6-(2-amino-6-fluoro-5-(4-(4-isopropylpiperazin-1-yl)phenyl)pyridin-3-yl)-8-fluoro-3,4-dihydroisoquinolin-1(2H)-one]
10 | 11 to 100 | > 1000 | Nc1nc(F)c(-c2ccc(OC3CCN(C(=O)CC4CC4)CC3)cc2)cc1-c1ccc2c(c1)CCNC2=O [I-337, 6-(2-amino-5-(4-((1-(2-cyclopropylacetyl)piperidin-4-yl)oxy)phenyl)-6-fluoropyridin-3-yl)-3,4-dihydroisoquinolin-1(2H)-one]
11 | 11 to 100 | > 1000 | Nc1nc(F)c(-c2ccc(OC3CCN(C4COC4)CC3)cc2)cc1-c1ccc2c(c1)CCNC2=O [I-338, 6-(2-amino-6-fluoro-5-(4-((1-(oxetan-3-yl)piperidin-4-yl)oxy)phenyl)pyridin-3-yl)-3,4-dihydroisoquinolin-1(2H)-one]
12 | 11 to 100 | > 1000 | Nc1nc(F)c(-c2ccc(OC3CNC3)cc2)cc1-c1cc2c(cc1F)C(=O)NCC2 [I-339, 6-(2-amino-5-(4-(azetidin-3-yloxy)phenyl)-6-fluoropyridin-3-yl)-7-fluoro-3,4-dihydroisoquinolin-1(2H)-one 2,2,2-trifluoroacetate]
13 | 0.1 to 10 | > 1000 | Nc1nc(F)c(-c2ccc(C3(F)CNC3)cc2)cc1-c1ccc2c(c1)CCNC2=O [I-340, 6-(2-amino-6-fluoro-5-(4-(3-fluoroazetidin-3-yl)phenyl)pyridin-3-yl)-3,4-dihydroisoquinolin-1(2H)-one 2,2,2-trifluoroacetate]
14 | 11 to 100 | > 1000 | CC(=O)N1CC(Oc2ccc(-c3cc(-c4cc5c(cc4F)C(=O)NCC5)c(N)nc3F)cc2)C1 [I-341, 6-(5-(4-((1-acetylazetidin-3-yl)oxy)phenyl)-2-amino-6-fluoropyridin-3-yl)-7-fluoro-3,4-dihydroisoquinolin-1(2H)-one]
15 | 0.1 to 10 | > 1000 | CC(=O)N1CC(F)(c2ccc(-c3cc(-c4ccc5c(c4)CCNC5=O)c(N)nc3F)cc2)C1 [I-342, 6-(5-(4-(1-acetyl-3-fluoroazetidin-3-yl)phenyl)-2-amino-6-fluoropyridin-3-yl)-3,4-dihydroisoquinolin-1(2H)-one]
16 | 0.1 to 10 | > 1000 | CN1C[C@H]2C[C@@]2(c2ccc(-c3cc(-c4cc5c(cc4F)C(=O)NCC5)c(N)nc3F)cc2)C1 [I-343, 6-(2-amino-6-fluoro-5-(4-((1R,5S)-3-methyl-3-azabicyclo[3.1.0]hexan-1-yl)phenyl)pyridin-3-yl)-7-fluoro-3,4-dihydroisoquinolin-1(2H)-one]
17 | 0.1 to 10 | > 1000 | CN1C[C@@H]2C[C@]2(c2ccc(-c3cc(-c4cc5c(cc4F)C(=O)NCC5)c(N)nc3F)cc2)C1 [I-344, 6-(2-amino-6-fluoro-5-(4-((1S,5R)-3-methyl-3-azabicyclo[3.1.0]hexan-1-yl)phenyl)pyridin-3-yl)-7-fluoro-3,4-dihydroisoquinolin-1(2H)-one]
18 | 0.1 to 10 | > 1000 | CC(C)N1CCN(c2ccc(-c3cc(-c4ccc5c(c4)CCNC5=O)c(N)nc3F)c(F)c2F)CC1 [I-345, 6-(2-amino-5-(2,3-difluoro-4-(4-isopropylpiperazin-1-yl)phenyl)-6-fluoropyridin-3-yl)-3,4-dihydroisoquinolin-1(2H)-one]
19 | 0.1 to 10 | > 1000 | Nc1nc(F)c(-c2ccc(N3CCS(=O)(=O)CC3)cc2)cc1-c1cc2c(cc1F)C(=O)NCC2 [I-346, 6-(2-amino-5-(4-(1,1-dioxidothiomorpholino)phenyl)-6-fluoropyridin-3-yl)-7-fluoro-3,4-dihydroisoquinolin-1(2H)-one]
20 | 0.1 to 10 | > 1000 | Nc1nc(F)c(-c2ccc(N3CCSCC3)cc2)cc1-c1cc2c(cc1F)C(=O)NCC2 [I-347, 6-(2-amino-6-fluoro-5-(4-thiomorpholinophenyl)pyridin-3-yl)-7-fluoro-3,4-dihydroisoquinolin-1(2H)-one]
21 | 0.1 to 10 | > 1000 | Nc1nc(F)c(-c2ccc(OC3CCN(C(=O)CCCC[C@@H]4SC[C@@H]5NC(=O)N[C@@H]54)CC3)cc2)cc1-c1ccc2c(c1)CCNC2=O [I-348, (3aS,4S,6aR)-4-(5-(4-(4-(6-amino-2-fluoro-5-(1-oxo-1,2,3,4-tetrahydroisoquinolin-6-yl)pyridin-3-yl)phenoxy)piperidin-1-yl)-5-oxopentyl)tetrahydro-1H-thieno[3,4-d]imidazol-2(3H)-one]
22 | 0.1 to 10 | > 1000 | CC(C)N1CCN(c2ccc(-c3cc(-c4cc5c(cc4Cl)C(=O)NCC5)c(N)nc3F)cc2)CC1 [I-349, 6-(2-amino-6-fluoro-5-(4-(4-isopropylpiperazin-1-yl)phenyl)pyridin-3-yl)-7-chloro-3,4-dihydroisoquinolin-1(2H)-one]
23 | 0.1 to 10 | 101 to 1000 | COCCN1CCC(c2ccc(-c3cc(-c4cc(F)c5c(c4)CCNC5=O)c(N)nc3F)cc2)CC1 [I-350, 6-(2-amino-6-fluoro-5-(4-(1-(2-methoxyethyl)piperidin-4-yl)phenyl)pyridin-3-yl)-8-fluoro-3,4-dihydroisoquinolin-1(2H)-one]
24 | 0.1 to 10 | > 1000 | CC(C)[C@@H]1CN(c2ccc(-c3cc(-c4cc(F)c5c(c4)CCNC5=O)c(N)nc3F)cc2)CCO1 [I-351, (R)-6-(2-amino-6-fluoro-5-(4-(2-isopropylmorpholino)phenyl)pyridin-3-yl)-8-fluoro-3,4-dihydroisoquinolin-1(2H)-one]
25 | 0.1 to 10 | > 1000 | CN1C[C@H]2C[C@@]2(c2ccc(-c3cc(-c4cc(F)c5c(c4)CCNC5=O)c(N)nc3F)cc2)C1 [I-352, 6-(2-amino-6-fluoro-5-(4-((1R,5S)-3-methyl-3-azabicyclo[3.1.0]hexan-1-yl)phenyl)pyridin-3-yl)-8-fluoro-3,4-dihydroisoquinolin-1(2H)-one]
26 | 0.1 to 10 | 101 to 1000 | CN1C[C@@H]2C[C@]2(c2ccc(-c3cc(-c4cc(F)c5c(c4)CCNC5=O)c(N)nc3F)cc2)C1 [I-353, 6-(2-amino-6-fluoro-5-(4-((1S,5R)-3-methyl-3-azabicyclo[3.1.0]hexan-1-yl)phenyl)pyridin-3-yl)-8-fluoro-3,4-dihydroisoquinolin-1(2H)-one]
